Here are results for ten molecules from US10222368B2 (priority 2012, dated 2019).

One assay deals with T1, α7nAChR-FLNA association (Rattus norvegicus, UniProt A0A8I5ZV49).
T1 construct: from tissue; host or cells: rat frontal cortical synaptosomes
Description: Rat frontal cortical synaptosomes treated with Aβ42, anti-FLNA immunoprecipitation / Western blot. Type of assay: cell-based. From the text:
The α7nAChR-FLNA complexes in the solubilized synaptosomes were immunoprecipitated with immobilized anti-FLNA and the α7nAChR and FLNA levels in the anti-FLNA immunoprecipitates determined by Western blotting (FIG. 14A) and quantified by densitometry for illustrative compounds (FIG. 14B). n=3. […] The letter designation “M” that accompanies many of the “C-series” compounds is omitted from FIG. 14, the remaining figures and most discussions of the figures and compounds hereinafter for ease in expression. Structural formulas of the compounds used in this and the other figures are provided hereinafter.
(§1) The complexes in the solubilized synaptosomes, and α7nAChR, TLR4 and FLNA levels in the anti-FLNA immunoprecipitates were determined by Western blotting (FIG. 15A) in which numerals outside of and to the left of the blots are as discussed before. Amounts present in the blots were quantified by densitometry (FIG. 15B). […] Structural formulas of the compounds used in this and the other figures are provided hereinafter.
Background: In western blotting, separated proteins are transferred to a membrane and probed.

The target in assay [1] is T2, human FLNA-α7nAChR complex (Homo sapiens, UniProt P21333).
T2 construct: To determine the levels of FLNA-α7nAChR, FLNA-TLR4 and α7nAChR-Aβ42 complexes in the lymphocytes; endogenous in cells; host or cells: lymphocytes from venous blood of AD patients and control subjects (ex vivo)
Description: Supplemental ELISA for FLNA-α7nAChR complex (Example 8: specificity, accuracy, precision, linearity, detection limit).
Description: The following ELISA method activities were carried out to quantify FLNA-α7nAChR complex: specificity; accuracy; precision/repeatability; linearity and range; and, detection limit.
To assure ELISA assay uniquely identifies human FLNA-α7nAChR complex, the cross reactivity to human FLNA-α7nAChR complex, unrelated human proteins human leptin and human chorionic gonadotropin (hLeptin and hCG) were added to the lymphocyte lysate preparations and the ELISA assay performed.
To assure the ELISA assay returns a value that is representative of the “true” value, a range of concentrations of recombinant human leptin was spiked into lysate sample with FLNA-α7nAChR complex. Recovery percent concentrations were measured and accuracy calculated.
To assure that three measurements of a single lysate sample (e.g., sample AD#63) made in the same assay provide the same result, three samples were measured using the ELISA assay, three times on the same day using the same methods (repeatability). Within-day RSD was calculated.
To assure that the response is linear over the range of expected sample values, OD 450 of different concentrations of human FLNA-α7nAChR complex were detected using the ELISA assay. […]

In a further assay the target is T3, mu opiate receptor (MOR) (Rattus norvegicus, UniProt P33535).
T3 construct: from tissue; host or cells: striatal tissue (membrane preparation)
Briefly: MOR agonist activity using [35S]GTPγS binding assay in striatal membranes. It is filed as biochemical. Particulars: striatal membranes; for MOR agonist activity, [35S]GTPγS binding, FLNA-binding compound as agonist at 0.1 μM: 0.1 μM compound; for MOR agonist activity, [35S]GTPγS binding, FLNA-binding compound as agonist at 0.1 μM / MOR agonist activity, [35S]GTPγS binding, FLNA-binding compound as agonist at 1 μM: Series C-2; for MOR agonist activity, [35S]GTPγS binding, 1 μM + BFNA: 1 μM compound + 1 μM β-FNA (MOR antagonist); for MOR agonist activity, [35S]GTPγS binding, FLNA-binding compound as agonist at 1 μM: 1 μM compound. A general note: GTPγS resists hydrolysis and so accumulates on activated G proteins.

The target in a further assay is KAPPA opioid receptor (Homo sapiens, UniProt P41145). Particulars: cited from earlier work.
Another assay has as its target T4, TLR4/FLNA (Rattus norvegicus, UniProt A0A8I5ZV49).
T4 construct: from tissue; host or cells: rat frontal cortical synaptosomes
Briefly: Rat frontal cortical synaptosomes treated with Aβ42, anti-FLNA immunoprecipitation / Western blot. It is filed as cell-based. The following applies: 1 or 10 nM compound, simultaneously or 10 min prior to 0.1 μM Aβ42; Dunnett's test. As to the method: as §1

Where [2] appears, read: 0.1 or 1 nM compound, simultaneously with or 10 min prior to Aβ42.

T1 sequence (A0A8I5ZV49 1-2647): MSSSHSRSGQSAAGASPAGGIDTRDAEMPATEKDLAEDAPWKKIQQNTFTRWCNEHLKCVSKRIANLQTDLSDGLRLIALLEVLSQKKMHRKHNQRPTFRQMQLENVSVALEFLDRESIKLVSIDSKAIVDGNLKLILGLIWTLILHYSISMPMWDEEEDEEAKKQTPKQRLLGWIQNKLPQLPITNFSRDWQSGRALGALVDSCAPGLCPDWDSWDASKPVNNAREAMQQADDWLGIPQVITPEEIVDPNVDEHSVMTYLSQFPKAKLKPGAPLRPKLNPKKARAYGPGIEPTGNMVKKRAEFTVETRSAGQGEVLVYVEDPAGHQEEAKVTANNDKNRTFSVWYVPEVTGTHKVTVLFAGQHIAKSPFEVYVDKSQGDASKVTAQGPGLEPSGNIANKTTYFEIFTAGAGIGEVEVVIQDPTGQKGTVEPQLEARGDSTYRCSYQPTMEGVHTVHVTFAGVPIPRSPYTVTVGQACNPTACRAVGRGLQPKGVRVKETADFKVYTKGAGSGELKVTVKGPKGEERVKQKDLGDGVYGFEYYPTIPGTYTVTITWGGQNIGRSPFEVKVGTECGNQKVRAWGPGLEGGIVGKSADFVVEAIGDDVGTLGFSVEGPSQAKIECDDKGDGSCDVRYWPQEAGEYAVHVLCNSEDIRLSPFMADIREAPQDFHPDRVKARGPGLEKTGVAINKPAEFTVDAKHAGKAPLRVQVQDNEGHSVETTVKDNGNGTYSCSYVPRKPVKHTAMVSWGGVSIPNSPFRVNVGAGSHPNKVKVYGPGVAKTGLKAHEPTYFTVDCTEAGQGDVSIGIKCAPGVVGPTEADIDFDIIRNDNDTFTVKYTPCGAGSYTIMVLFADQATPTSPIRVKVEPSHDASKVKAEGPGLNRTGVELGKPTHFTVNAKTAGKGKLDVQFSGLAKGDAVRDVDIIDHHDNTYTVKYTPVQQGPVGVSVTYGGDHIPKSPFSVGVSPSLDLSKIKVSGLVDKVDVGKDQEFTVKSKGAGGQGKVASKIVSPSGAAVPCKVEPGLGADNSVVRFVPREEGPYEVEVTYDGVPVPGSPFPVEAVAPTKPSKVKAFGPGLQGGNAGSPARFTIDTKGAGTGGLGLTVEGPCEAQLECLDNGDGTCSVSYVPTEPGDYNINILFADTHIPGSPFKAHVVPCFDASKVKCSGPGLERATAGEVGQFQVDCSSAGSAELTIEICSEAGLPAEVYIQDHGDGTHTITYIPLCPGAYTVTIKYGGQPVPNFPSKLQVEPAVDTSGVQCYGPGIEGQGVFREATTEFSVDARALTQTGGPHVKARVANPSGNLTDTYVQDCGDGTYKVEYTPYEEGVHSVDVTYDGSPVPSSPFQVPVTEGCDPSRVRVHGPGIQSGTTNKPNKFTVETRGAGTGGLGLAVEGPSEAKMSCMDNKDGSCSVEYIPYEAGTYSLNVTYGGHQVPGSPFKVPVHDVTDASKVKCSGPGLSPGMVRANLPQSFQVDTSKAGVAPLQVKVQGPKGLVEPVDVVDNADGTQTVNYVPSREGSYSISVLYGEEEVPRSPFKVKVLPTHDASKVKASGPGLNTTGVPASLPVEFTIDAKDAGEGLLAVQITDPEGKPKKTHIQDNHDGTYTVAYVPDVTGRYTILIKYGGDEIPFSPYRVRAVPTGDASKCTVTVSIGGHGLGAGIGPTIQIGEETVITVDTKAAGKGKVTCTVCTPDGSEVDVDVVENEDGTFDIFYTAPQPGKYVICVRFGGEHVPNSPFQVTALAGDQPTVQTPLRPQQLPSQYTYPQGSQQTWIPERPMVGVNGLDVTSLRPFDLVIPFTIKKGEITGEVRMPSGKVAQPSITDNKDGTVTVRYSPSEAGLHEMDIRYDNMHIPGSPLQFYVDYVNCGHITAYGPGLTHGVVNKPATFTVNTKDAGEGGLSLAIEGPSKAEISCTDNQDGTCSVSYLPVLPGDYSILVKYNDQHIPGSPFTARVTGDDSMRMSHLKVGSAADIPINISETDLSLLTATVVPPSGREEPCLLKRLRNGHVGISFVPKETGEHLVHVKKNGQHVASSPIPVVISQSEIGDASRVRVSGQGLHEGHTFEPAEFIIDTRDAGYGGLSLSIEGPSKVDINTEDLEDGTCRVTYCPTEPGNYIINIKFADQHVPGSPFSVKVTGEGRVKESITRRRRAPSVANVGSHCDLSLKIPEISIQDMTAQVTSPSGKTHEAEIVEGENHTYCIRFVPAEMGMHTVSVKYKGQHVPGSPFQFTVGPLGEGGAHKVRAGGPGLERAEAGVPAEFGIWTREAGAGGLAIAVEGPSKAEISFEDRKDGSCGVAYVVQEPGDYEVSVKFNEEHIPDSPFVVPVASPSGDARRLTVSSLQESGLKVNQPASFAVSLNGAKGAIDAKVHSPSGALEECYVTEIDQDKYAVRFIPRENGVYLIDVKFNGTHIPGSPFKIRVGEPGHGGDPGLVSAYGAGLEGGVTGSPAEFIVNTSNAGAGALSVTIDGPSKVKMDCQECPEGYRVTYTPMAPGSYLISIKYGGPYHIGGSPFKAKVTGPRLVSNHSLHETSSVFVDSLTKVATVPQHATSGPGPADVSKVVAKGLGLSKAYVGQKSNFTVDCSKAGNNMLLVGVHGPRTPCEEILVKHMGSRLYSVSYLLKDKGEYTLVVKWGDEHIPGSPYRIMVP
T3 sequence (P33535 whole entry): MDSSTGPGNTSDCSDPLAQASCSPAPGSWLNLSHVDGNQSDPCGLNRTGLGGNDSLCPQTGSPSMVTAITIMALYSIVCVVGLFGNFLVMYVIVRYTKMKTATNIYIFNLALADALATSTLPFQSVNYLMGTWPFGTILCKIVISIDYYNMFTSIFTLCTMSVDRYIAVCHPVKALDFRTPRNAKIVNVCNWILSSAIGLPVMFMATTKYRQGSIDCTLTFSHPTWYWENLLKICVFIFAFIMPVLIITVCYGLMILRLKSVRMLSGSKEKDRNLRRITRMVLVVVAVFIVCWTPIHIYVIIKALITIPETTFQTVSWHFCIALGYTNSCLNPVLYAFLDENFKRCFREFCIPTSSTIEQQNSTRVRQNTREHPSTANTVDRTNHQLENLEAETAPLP
T4 sequence (A0A8I5ZV49 1-2647): as the sequence (A0A8I5ZV49 1-2647) above
Sequence of KAPPA opioid receptor (P41145 whole entry): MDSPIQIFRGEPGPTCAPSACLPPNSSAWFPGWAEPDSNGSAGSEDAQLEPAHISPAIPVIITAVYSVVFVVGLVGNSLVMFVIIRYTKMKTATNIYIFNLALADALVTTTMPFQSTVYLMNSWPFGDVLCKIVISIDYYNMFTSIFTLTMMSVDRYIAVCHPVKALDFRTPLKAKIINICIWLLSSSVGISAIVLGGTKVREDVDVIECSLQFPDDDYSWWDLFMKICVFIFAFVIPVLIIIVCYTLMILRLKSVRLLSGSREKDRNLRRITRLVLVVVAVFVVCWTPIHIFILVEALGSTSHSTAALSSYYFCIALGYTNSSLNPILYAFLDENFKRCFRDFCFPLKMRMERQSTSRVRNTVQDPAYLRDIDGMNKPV

For the molecule `CC1CCC(C(C)C)C(OCC(O)CN2CCc3ccccc3C2)C1` (stereo not drawn) [Compound A0040], the “Effect on Aβ42-induced α7nAChR-FLNA association (in words)” value (shortened to “Effect”) at α7nAChR-FLNA association (setting [2]) is “reduce α7nAChR-FLNA association”.

`CC1CCC(C(C)C)C(OCC(CN2CC(C)OC(C)C2)NCc2ccccc2)C1` (stereo not drawn) [Compound A0033]: the “Effect” value on α7nAChR-FLNA association (setting [2]) is reported as “reduce α7nAChR-FLNA association”.

Turning to “hLeptin: unrelated human proteins human leptin and human chorionic gonadotropin (hLeptin and hCG); Human recombinant leptin”, the “Normalized OD, Average” value in assay [1] (5 μg protein per well instead of lymphocyte lysate) is given as 0.02. The “% Cross reactivity” value in assay [1] (5 μg protein per well, relative to 5 μg AD#63 lysate) is 4.3%.

Take `O=C1CNC2(CCNCC2)N1Cc1ccccc1` [Compound C0114M]: on α7nAChR-FLNA association (setting [2]), the “Effect” value is recorded as “reduce α7nAChR-FLNA association”. Also, at mu opiate receptor (MOR), the “MOR agonist activity, [35S]GTPγS binding, FLNA-binding compound as agonist at 0.1 μM” value (shortened to “MOR agonist activity … at 0.1 μM”) is on record as 114.0%; the “MOR agonist activity, [35S]GTPγS binding, 1 μM + BFNA” value (from here on “MOR agonist activity … 1 μM + BFNA”) came out at 35.9%; the “MOR agonist activity, [35S]GTPγS binding, FLNA-binding compound as agonist at 1 μM” value (“MOR agonist activity … at 1 μM” for short) stood at 144.3%.

For `Oc1ccc2c3c1O[C@H]1c4[nH]c5c(c4C[C@@]4(O)C(C2)N(CC2CC2)CC[C@]314)C[C@@]1(O)[C@H]2Cc3ccc(O)c4c3[C@@]1(CCN2CC1CC1)[C@H]5O4` [Binaltrophimine], at KAPPA opioid receptor, the “Opioid receptor activity and relative potency, KAPPA” value is on record as “− −”.

In the case of `O=C1CNC2(CCN(CC3CC3)CC2)N1Cc1ccccc1` [Compound C0124M], the “Effect” value at α7nAChR-FLNA association (1 or 10 nM compound, simultaneously or 10 min prior to 0.1 μM Aβ42) is “reduce α7nAChR-FLNA association”. Further, on TLR4/FLNA, the “TLR4/FLNA ratio versus Aβ42 alone (in words)” value was “statistically different from Aβ42 alone”. In addition, on mu opiate receptor (MOR), the “MOR agonist activity … at 0.1 μM” value was determined as 252.0%; the “MOR agonist activity … 1 μM + BFNA” value came to 61.4%; the “MOR agonist activity … at 1 μM” value is listed as 305.1%.

Take `CN1CCC2(CC1)NCC(=O)N2Cc1ccccc1` [Compound C0105M]: the “Effect” value on α7nAChR-FLNA association (setting [2]) is “reduce α7nAChR-FLNA association”. Besides, at mu opiate receptor (MOR), the “MOR agonist activity … at 0.1 μM” value is on record as 198.1%; the “MOR agonist activity … 1 μM + BFNA” value came out at 73.1%; the “MOR agonist activity … at 1 μM” value stood at 220.3%.

Take `CC1CCC(C(C)C)C(OCC(O)CN2CCCc3ccccc32)C1` (stereo not drawn) [Compound A0068]: the “Effect” value at α7nAChR-FLNA association (setting [2]) is listed as “reduce α7nAChR-FLNA association”.

Regarding `COc1ccc(OCC(O)CN2CCc3ccccc3C2)cc1` (stereo not drawn) [Compound A0053], the “Effect” value at α7nAChR-FLNA association (setting [2]) was “reduce α7nAChR-FLNA association”.

For `C=CCN1CC[C@]23c4c5ccc(O)c4O[C@H]2C(=O)CC[C@]3(O)[C@H]1C5` [(+) NLX, (+)naloxone, reference compound], the “Effect” value at α7nAChR-FLNA association (setting [2]) was “reduce α7nAChR-FLNA association”.
